How the values were obtained:
wildtype mice = assay: FeCl3-induced injury in the carotid artery after infusion of corn trypsin inhibitor; format: in vivo, mouse
Experimental: (§1) Alternatively, to test the impact of small molecule FXII inhibitors, wildtype mice were infused with the FXII inhibitor corn trypsin inhibitor (CTI, 50 μg/g body weight) 5 min prior to FeCl3-induced injury in the carotic artery (Wang et al. (2005) J. Thromb. Heamost. 3: 695-702). […] In none of the animals tested (0/4) vessel occluding thrombi developed within 30 min following application of FeCl3.

[1] = test system: intrinsic coagulation pathway; assay: aPTT of wildtype mice after infusion of corn trypsin inhibitor; format: in vivo, mouse; conditions: CTI 50 μg/g body weight, n=4
Experimental: as §1
Global and single coagulation parameters were determined with an automated blood coagulation system (BCS, Dade Behring) with Dade Behring reagents according to the protocols for human samples detailed by the manufacturer. Principles of BCS assay protocols are available from Dade Behring package inserts, which can be found on Dade Behring's web site (http://www.dadebehring.com). D-dimers werde measured with the ELISA from Asserachrorn (Roche). Peripheral blood counts were determines on the Sysmex XE 2100 according to standard protocols.

Substance: corn trypsin inhibitor [CTI]
- animals developing vessel occluding thrombi within 30 min following application of FeCl3 (wildtype mice; CTI 50 μg/g 5 min prior to injury, carotid artery): 0/4
- bleeding during the surgical procedure (wildtype mice; CTI 50 μg/g body weight): did not affect bleeding
- aPTT [1]: 62 ± 11 s

Source: patent US8715672B2, “Treatment of diseases linked to pathological kinin formation” (CSL Behring GmbH, priority 2004, dated 2014)
